Experimental data as given in patent publication US20020132319A1, “Peptide mutant of human ERAB or HADH2, its X-ray crystal structure, and materials and method for identification of inhibitors thereof” (priority 2000, published 2002).
“Also recorded” adds a separate entry of the source.

Experiments:
[1] = biological target: E. coli 17β-hydroxysteroid dehydrogenase (Escherichia coli, UniProt P0AET8); assay: Inhibition of related SDR family member (E. coli enzyme); type: biochemical; settings: at concentrations as high as 100 μM
Chain of E. coli 17β-hydroxysteroid dehydrogenase (P0AET8 whole entry): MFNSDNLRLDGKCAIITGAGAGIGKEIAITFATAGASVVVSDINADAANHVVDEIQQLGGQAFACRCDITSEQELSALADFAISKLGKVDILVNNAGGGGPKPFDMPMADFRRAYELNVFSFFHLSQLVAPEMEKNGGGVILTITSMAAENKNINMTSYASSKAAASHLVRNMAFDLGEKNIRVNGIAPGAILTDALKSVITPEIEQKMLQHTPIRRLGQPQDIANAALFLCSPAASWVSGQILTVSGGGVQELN

[2] = biological target: Streptomycetes hydrogenans 3α-20β- hydroxysteroid dehydrogenase (Streptomyces exfoliatus, UniProt P19992); assay: Inhibition of related SDR family member (Streptomyces enzyme); type: biochemical; settings: at concentrations as high as 100 μM
Chain of Streptomycetes hydrogenans 3α-20β- hydroxysteroid dehydrogenase (P19992 whole entry): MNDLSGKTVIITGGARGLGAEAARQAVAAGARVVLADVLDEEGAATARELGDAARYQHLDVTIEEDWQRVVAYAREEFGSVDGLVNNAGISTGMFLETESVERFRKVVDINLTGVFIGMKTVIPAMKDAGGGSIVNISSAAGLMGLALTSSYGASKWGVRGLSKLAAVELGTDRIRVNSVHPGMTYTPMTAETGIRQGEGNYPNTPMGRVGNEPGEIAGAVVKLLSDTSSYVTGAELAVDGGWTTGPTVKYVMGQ

ERAB or HADH2 = biological target: T1, ERAB or HADH2 (Homo sapiens, UniProt Q99714); assay: Spectrophotometric ERAB or HADH2 inhibition assay (NADH, acetoacetyl-CoA as substrate); type: biochemical
T1 construct: made in house; host or cells: E. coli (plasmid pMGH4)
T1 sequence (Q99714 1-261): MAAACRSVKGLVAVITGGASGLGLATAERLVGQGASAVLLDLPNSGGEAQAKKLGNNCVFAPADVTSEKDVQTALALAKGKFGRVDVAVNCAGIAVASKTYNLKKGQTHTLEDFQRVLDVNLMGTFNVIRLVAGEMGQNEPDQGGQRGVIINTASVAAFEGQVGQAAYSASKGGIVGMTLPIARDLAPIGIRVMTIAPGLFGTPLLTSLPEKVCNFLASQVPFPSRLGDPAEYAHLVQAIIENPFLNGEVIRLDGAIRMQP
Experimental: The IC50 value for Compound I was determined spectrophotometrically by monitoring the […] of NADH to NAD^+ with acetoacetyl-CoA as substrate. Enzyme (2.5 nM) was preincubated with inhibitor for 400 seconds at 30° C. in the presence of 36 uM NADH, 25 mM MOPS, pH 7.5, 250 mM NaCl, 2% (v/v) DMSO, and 2.5 mM TCEP. The reaction was initiated by addition of substrate (38 μM). Reduction of NADH was monitored at […]. The IC50 value was determined by non-linear regression analysis using KaleidaGraph (obtained from Synergy Software, Reading, Pa.).

wild-type ERAB or HADH2 [3] = biological target: T2, wild-type ERAB or HADH2 (Homo sapiens, UniProt Q99714); assay: Isothermal titration calorimetry, inhibitor binding experiments
T2 construct: made in house; host or cells: E. coli (plasmid pMGH4; spontaneous mutant of strain BL21(DE3), 'B121 (DE3)' [sic])
T2 sequence (Q99714 1-261): T1 sequence (Q99714 1-261)
Experimental: FIG. 5 is a plot of integrated-binding data obtained for a calorimetric titration of wild-type ERAB or HADH2 into Compound I in the presence and absence of cofactor. Wild-type ERAB or HADH2 (415 μM) was titrated into 20 μM inhibitor in the presence and absence of 20 μM cofactor at 15° C. The closed symbols represent the integrated-data points for 10 μL injections of ERAB or HADH2 into inhibitor in the absence of cofactor (♦); in the presence of NAD^+ (●); and in the presence of NADH (▪). The open symbols represent the integrated data points for the corresponding control titrations of ERAB or HADH2 into buffer (Δ); in the presence of NAD^+ (∘); and in the presence of NADH (□). Lines connecting the data points have been added for visual clarity.
(§1) Titrations described herein were performed with an MCS microcalorimeter (obtained from MicroCal, Inc., Northampton, […].).
(§2) For the inhibitor binding experiments, the titrations were performed in 25 mM MOPS (pH 7.5), 125 mM NaCl, 10% glycerol, 2.0% DMSO, 0.5 mM TCEP (Tri(2-carboxyethyl)phosphine), 0.1 mM EDTA at 15° C. The syringe contained 415 μM wild-type ERAB or HADH2 and the cell contained either 20 μM inhibitor, 20 μM cofactor, or 20 μM each of inhibitor and cofactor. After a preliminary 20 μL injection, 12 injections of 10.0 μL each were made at 4 minute intervals. Dilution control titrations of buffer into buffer, protein into buffer, and buffer into inhibitor, cofactor and inhibitor/cofactor mixture were also performed. For the cofactor binding experiments, the titrations were performed in 50 mM MOPS (3-(N-morpholino) propanesulfonic acid, pH 7.5), 250 mM NaCl, 10% glycerol, 2.0% DMSO, 10 mM TCEP at 15° C.

wild-type ERAB or HADH2 [4] = biological target: T2, wild-type ERAB or HADH2; assay: Isothermal titration calorimetry, cofactor binding experiments; settings: 2.68 mM cofactor titrated into 127 μM wild-type ERAB or HADH2, 15° C.; read-out: Kd for NAD+
Experimental: as §1, §2
For the NADH titration, the syringe contained 700 μM cofactor and the cell contained 35 μM wild type ERAB or HADH2. For the NAD^+ titration, the syringe contained 2.68 mM cofactor and the cell contained 127 μM wild-type ERAB or HADH2.

Row | SMILES | inhibition of E. coli 17β-hydroxysteroid dehydrogenase [1] | inhibition of Streptomycetes hydrogenans 3α-20β-hydroxysteroid dehydrogenase [2] | IC50 against ERAB (ERAB or HADH2; Compound I made according to Scheme 1) [µM] | average IC50 against ERAB or HADH2 (ERAB or HADH2; Compound I made according to Scheme 2, racemic mixture) [µM] | ITC binding to ERAB or HADH2 in the absence of cofactor (wild-type ERAB or HADH2 [3]; ERAB 415 μM titrated into 20 μM inhibitor alone, 15° C.) | ITC binding to ERAB or HADH2 in the presence of NAD+ (wild-type ERAB or HADH2 [3]; ERAB titrated into equimolar 20 μM inhibitor and NAD+, 15° C.) | ITC binding to ERAB or HADH2 in the presence of NADH (wild-type ERAB or HADH2 [3]; ERAB titrated into equimolar 20 μM inhibitor and NADH, 15° C.) | binding to ERAB or HADH2 more potent with NAD+ than in the absence of NAD+ (wild-type ERAB or HADH2 [3]; with NAD+ versus absence of NAD+) | Kd (wild-type ERAB or HADH2 [4]) [µM] | ITC binding when ERAB or HADH2 titrated into cofactor alone (wild-type ERAB or HADH2 [3]; ERAB 415 μM titrated into 20 μM NAD+ alone, 15° C.)
1 | O=C(C(c1ccccc1)n1cnc2[nH]ncc2c1=S)N1CCCCCC1 (racemic) [Compound I, 1-azepan-1-yl-2-phenyl-2-(4-thioxo-1,4-dihydro-pyrazolo[3,4-d]pyrimidin-5-yl)-ethanone] | no detectable inhibition | no detectable inhibition | 0.088 | 0.092 ± 0.005 | binds weakly; also recorded: No binding was detected | tight-binding curve | binds weakly | approximately 1000 fold | – | –
2 | NC(=O)c1ccc[n+]([C@@H]2O[C@H](COP(=O)([O-])OP(=O)(O)OC[C@H]3O[C@@H](n4cnc5c(N)ncnc54)[C@H](O)[C@@H]3O)[C@@H](O)[C@H]2O)c1 [NAD^+, reference compound] | – | – | – | – | – | – | – | – | ~500 | No binding was detected
